test: Human HepG2 cell viability assay in 384 well format; format: toxicity, cell-based; design: dose 125 nL, time 70.5 hour; cytotoxicity at 70.5 h: concentration not given beside the values; details: HepG2 cells, read-out: Inhibition

| Compound | cytotoxicity at 70.5 h |
| --- | --- |
| CCc1ccc(S(=O)(=O)N2CCCC3(CCCN3S(C)(=O)=O)C2)cc1 (stereo not given) | 22.3% |
| COCc1ncn2c1CN(C(=O)c1cnc3ccccc3c1)CC2 | 1.48% |
| Cn1ncc2c1C(COCC1CC1)CN(Cc1ccsc1)C2 (stereo not given) | 2.88% |
| CS(=O)(=O)N1CCCC12CCCN(S(=O)(=O)c1ccc(F)c(F)c1)C2 (stereo not given) | 2.95% |
| CC(C)c1ccc(S(=O)(=O)N2CCCC3(CCCN3S(C)(=O)=O)C2)cc1 (stereo not given) | 39.5% |
| O=C(C1CC1)N1CCC2(COCc3cnc(NCc4ccco4)nc32)C1 (stereo not given) | -2.45% |
| O=C1CC2(CCN(c3nncs3)C2)CN1c1ccc2c(c1)OCCO2 (stereo not given) | -1.06% |
| Cc1cccc(N2CC3(CCN(c4nncs4)C3)CC2=O)c1 (stereo not given) | -4.91% |
| CO[C@H]1CN(C(=O)c2ccc[nH]2)[C@@H]2COC[C@H]12 | -2.94% |
| O=C(NCC1CCN(C(=O)c2ccoc2)CC1)c1ccccc1Br | -0.695% |
| O=S(=O)(c1ccccc1)N1CCN(CCn2ccnc2)CC1 | 1.34% |
| O=S(=O)(c1cccnc1)N1CCN(CCn2ccnc2)CC1 | -0.387% |
| COc1ccccc1NC(=O)NCC(O)(c1ccccc1)C1CC1 (stereo not given) | 20.2% |
| Cc1ccc(NC(=O)Nc2cnc(N3CCN(C)CC3)nc2)c(Cl)c1 | 3.18% |
| NC(=O)c1nnn(-c2ccc(Br)cc2)n1 | 33.2% |
| Cn1c(C(F)(F)F)nn(CCNC(=O)CSCc2ccccc2)c1=O | 0.995% |
| O=C1CCSCC(C(=O)N2CCOCC2)N1 (stereo not given) | 0.753% |
| CCOC(=O)CCC(=O)N1CCC(Oc2ccc(C(F)(F)F)cn2)CC1 | -4.1% |
| CC(=O)N1CCC(Oc2ccc(C#N)cn2)CC1 | -3.09% |
| CN(C)S(=O)(=O)N1CCC(Oc2ccc(C#N)cn2)CC1 | -1.45% |
| COC(=O)c1sccc1S(=O)(=O)N1CCC(Oc2cccnn2)CC1 | -3.46% |
| COc1ncc(NC(=O)Nc2cc(C)ccc2OC)cn1 | 39.1% |

| Compound | cytotoxicity at 70.5 h |
| --- | --- |
| CN(C)CC1CSCCCN1C(=O)Nc1ccc(C(C)(C)C)cc1 (stereo not given) | 5.94% |
| Cc1cnc2n(c1=O)CC(C(=O)Nc1ccccc1Cl)CS2 (stereo not given) | -5% |
| CCc1c(C)nc2n(c1=O)CC(C(=O)Nc1nc3c(s1)CCCC3)CS2 (stereo not given) | 12.5% |
| CCc1c(C)nc2n(c1=O)CC(C(=O)Nc1ccccc1F)CS2 (stereo not given) | 20.5% |
| COCCN(Cc1ccoc1)C(=O)c1cccnc1SC | -0.295% |
| Cn1cc(C(=O)Nc2ccc3c(c2)CN(C(=O)c2ccco2)CC3)nn1 | -4.02% |
| O=C(NCCn1ccc(-c2ccncc2)n1)c1ccncc1 | -2.74% |
| O=C(NCCn1ccc(-c2ccccn2)n1)C1CC1 | -4.52% |
| Cn1nc(CNC(=O)c2ccc(Cl)cc2)c2c1CCOC2 | 3.98% |
| Cn1nc(CNC(=O)NCc2ccc(Cl)cc2)c2c1CCOC2 | -0.247% |
| Cn1nc(CNC(=O)C2COc3ccccc3O2)cc1C1CC1 (stereo not given) | 6.17% |
| Cn1cnnc1S(=O)(=O)C1CCN(S(=O)(=O)c2ccc(F)c(Cl)c2)CC1 | -5.73% |
| CNC(=O)CS(=O)(=O)C1CCN(S(=O)(=O)c2c(F)cccc2F)CC1 | -7.9% |
| O=C1CC(c2cccc(O)c2)c2sc(C(=O)O)c(-c3ccccc3)c2N1 (stereo not given) | 26.4% |
| CC(C)n1[nH]c(=O)c2c1NC(=O)CC2c1ccc2ncccc2c1 (stereo not given) | 5.19% |
| O=C(NCCC1=CCCCC1)C1CCN(c2ccc3nncn3n2)CC1 | 3.11% |
| CC(C)n1[nH]c(=O)c2c1NC(=O)CC2c1cccc(OC(F)F)c1 (stereo not given) | 6.29% |
| CC(C)(C)n1ncc2c1NC(=O)CC2c1ccsc1 (stereo not given) | -5.9% |
| CS(=O)(=O)N1CCN(C(=O)Cn2ccc3c(Cl)cccc32)CC1 | 8.68% |
| COC(=O)Cn1c(=O)nc2n1C(=O)N(c1ccc(Cl)cc1)C2 | 8.74% |
| COC(=O)Cn1c(=O)nc2n1C(=O)N(c1ccccc1)C2 | -8.59% |
| CC(C)(C)n1ncc2c1NC(=O)CC2c1ccc(OCC(N)=O)cc1 (stereo not given) | -10.7% |

| Compound | cytotoxicity at 70.5 h |
| --- | --- |
| CC(C)(C)n1ncc2c1NC(=O)CC2c1ccccc1 (stereo not given) | -7.73% |
| O=C1CC(c2ccco2)c2sc(C(=O)O)c(-c3ccccc3)c2N1 (stereo not given) | -13.5% |
| CCOc1ccc(CNCCCn2ccnc2)cc1Br | 6.06% |
| O=C(O)c1nnn(Cc2cccc(C(F)(F)F)c2)c1-c1cccnc1 | -30.6% |
| O=C(Cn1cc(C(=O)O)ccc1=O)Nc1ccc(Cl)cc1F | -38% |
| COc1ccc(OC)c(C2C3=C(COC3=O)Nc3[nH]nc(C)c32)c1 (stereo not given) | 32% |
| O=C1N(c2ccc(Br)cc2)Cc2nc(=O)[nH]n21 | -16.4% |
| O=C(O)c1cc2c(nc1O)CC(c1cccs1)CC2=O (stereo not given) | -3.98% |
| O=S(=O)(NC1=NCN(CCc2cccs2)CN1)c1ccccc1 | -19.9% |
| O=C1CC(c2ccc(C(=O)O)cc2)c2ncn(-c3cccc(F)c3)c2N1 (stereo not given) | -24.3% |
| O=C1CC(c2ccc(C(=O)O)cc2)c2ncn(-c3ccccc3)c2N1 (stereo not given) | -6.45% |
| COc1cc(CCC(C)O)c(OC)c2c1OCO2 (stereo not given) | -4.78% |
| Cc1c(C)n(Cc2ccccn2)c2nc3c(c(N)c12)CCCC3 | -14.4% |
| CCCNC(=O)c1cc2c(nc1O)CCC(C)C2 (stereo not given) | 22.8% |
| O=c1ccc(-c2cccs2)nn1CN1CCCCCC1 | -24.8% |
| CC(=O)Nc1ccc(-n2ccc3nc(N4CCCC4)ncc3c2=O)cc1 | 1.42% |
| Cc1ccc(C)c(-n2ccc3nc(N4CCCC4)ncc3c2=O)c1 | -7.78% |
| Cc1ccc(NS(=O)(=O)CC2=NC(=O)n3cccc3C2=O)cc1 | -36.1% |
| O=c1[nH]c2c(c(=O)n1C1CCCCC1)CCC2Nc1ccccc1Cl (stereo not given) | 21.6% |
| CCc1ccc(NS(=O)(=O)CC2=NC(=O)n3cccc3C2=O)cc1 | -5.39% |
| COCCN1C(=O)CC(N2CCN(c3ccc(F)cc3)CC2)C1=O (stereo not given) | 13.6% |
| CC(C)CCNC(=O)c1sccc1N(C)S(=O)(=O)c1ccccc1 | 33.2% |

| Compound | cytotoxicity at 70.5 h |
| --- | --- |
| CCCNC(=O)c1sccc1N(C)S(=O)(=O)c1ccc(Cl)cc1 | 20.9% |
| COc1cccc(N2CCN(CC(O)c3ccc(C)cc3)CC2)c1 (stereo not given) | 3.16% |
| O=C(O)c1nnn(-c2ccc(F)c(F)c2)c1-c1ccncc1 | -8.76% |
| CCc1ccccc1-n1nnc(C(=O)O)c1-c1ccccn1 | -8.12% |
| NC(=O)C1CCN(c2nc3nccc(-c4ccccn4)c3c(=O)[nH]2)CC1 | -3.55% |
| CCN(c1ccc(C(=O)NCCCN2CCOCC2)cc1)S(=O)(=O)CC | 17.8% |
| CCS(=O)(=O)Nc1ccc(C(=O)NCCCN2CCCC2)cc1 | -4.61% |
| COc1cccc(C2CC(=O)Nc3nc(N4CCOCC4)sc32)c1OC (stereo not given) | -8.01% |
| CCCNC(=O)c1c(-n2cnnn2)sc2c1CCC2 | -10.4% |
| O=C(Nc1ccccc1)c1nn(C2CCS(=O)(=O)C2)c2c1CCCC2 (stereo not given) | -11.3% |
| O=c1nc(CNc2ccccc2)[nH]n1Cc1ccccc1 | -13.1% |
| CC1CCN(c2nc(O)cc(C3CC(=O)N(C4CCCCC4)C3)n2)CC1 (stereo not given) | -8.25% |
| Nc1cc(-c2c[nH]nc2C2CCCCN2C(=O)C2CCCC2)ccn1 (stereo not given) | -7.49% |
| CN(C)S(=O)(=O)c1ccc(CNC(=O)C2CC(=O)N(C(C)(C)C)C2)cc1 (stereo not given) | -1.42% |
| Cc1nc(NC2CCOCC2)cc(C2CCN2S(C)(=O)=O)n1 (stereo not given) | -6.12% |
| Cc1cc(C)c2nc(C)c(C(=O)N3CCC(CCN(C)C)CC3)cc2c1 | -1.81% |
| Cc1ccnc(C2CN(Cc3cnn(-c4ccccc4C(=O)O)c3)C2)n1 | -6.57% |
| CN(C)c1nccnc1C1CCN(c2cnccn2)CC1 | -3.32% |
| Cc1cc(C(F)(F)F)nc(C2(C)CCCN2CC(N)=O)n1 (stereo not given) | 11.5% |
| CN(C)c1nccnc1C1CCCN(c2cnccn2)C1 (stereo not given) | -3.09% |
| CN1CCC(c2nnc3n2CCN(S(=O)(=O)c2ccccc2)C3)CC1 | -5.15% |
| CCOCCN1CCC(c2cncc(C)n2)CC1 | -1.63% |

| Compound | cytotoxicity at 70.5 h |
| --- | --- |
| O=C(O)c1ccc(CN2CCCC(Cc3ccn[nH]3)C2)cc1 (stereo not given) | -4.91% |
| CC(C)S(=O)(=O)N1C[C@@H](O)[C@H](N(C)Cc2ccc(F)cc2)C1 | 0.65% |
| CCn1cc(C(=O)N2C[C@H]3C[C@H](Oc4ccccc4)C[C@H]3C2)cn1 | -0.374% |
| O=C(N[C@@H]1CN(Cc2c[nH]nc2-c2ccccc2)C[C@H]1O)c1cc[nH]n1 | -9.21% |
| CCc1cccc2cc(CN)c(=O)[nH]c12 | -10% |
| COCCNc1ncc(-c2onc(C)c2C)c(-c2ccco2)n1 | -5.67% |
| Cc1noc(-c2cnc(NC(C)C)nc2-c2ccco2)c1C | -13.3% |
| CC(CNCc1ccc(Cl)c(Cl)c1)Oc1ccccn1 (stereo not given) | -1.69% |
| c1cc(OCc2ccc3c(c2)OCO3)ccc1CNC1CC1 | 48% |
| CC1CCN(CC(=O)NC2CCN(C(C)c3ccccc3)CC2)CC1 (stereo not given) | -12.3% |
| CCN1CCC2(CC1)C(=O)Nc1ccc(C(=O)NC)cc12 | 4.51% |
| CS(=O)(=O)NC1CC2(CCN(CC3CC3)CC2)Oc2ccccc21 (stereo not given) | 1.75% |
| CNC(=O)c1ccc2c(c1)C1(CCN(CCOC)CC1)C(=O)N2 | 0.0675% |
| O=c1ccc2c([nH]1)CCC(NCc1ccc3c(c1)OCO3)C2 (stereo not given) | -1.6% |
| Cc1ccc(CN2C[C@@H]3[C@@H](C(=O)NCC(C)C)CCS(=O)(=O)[C@@H]3C2)cc1 | -1.42% |
| CN(C)CCn1c2c(ccc1=O)CCN(C(=O)c1cccs1)CC2 | -5.63% |
| Cc1ccc(C(=O)N2CCc3ccc(=O)n(CCN(C)C)c3CC2)o1 | -4.04% |
| CNC(=O)CN1CC[C@H]2CN(C(=O)c3ccc(C)cc3)C[C@H]2C1 | -4.71% |
| Cc1ccc(CN2C[C@@H]3[C@@H](C(=O)NCC4CC4)CCS(=O)(=O)[C@@H]3C2)cc1 | -1.55% |
| Cc1cccc(CN2C[C@@H]3[C@@H](C(=O)NCC(C)C)CCS(=O)(=O)[C@@H]3C2)c1 | -6.13% |
| Cc1ccc(N[C@@H]2CN(Cc3cc(C)on3)C[C@@H]3CCCO[C@@H]32)nn1 | 2.24% |
| O=C(C1CC1)N1CC[C@@H]2[C@H](CC1)N(Cc1cccnc1)CCS2(=O)=O | -2.85% |
